Assay results: patent publication US10730887B2, “Compound containing tricyclic heteroaryl group” (Hangzhou Innogate Pharma Co., Ltd., priority 2016, dated 2020)
pIC50: −log10 of the molar value.

How the values were obtained:
CDK2/CycA2 = CDK2/CycA2 (Homo sapiens, UniProt P24941); experiment: CDK2 kinase activity inhibition, Caliper mobility shift assay; type: biochemical
Procedure: (§1) CDK2/CycA2, CDK4/CycD3 and CDK6/cycD3 protein kinase activities were determined using the Caliper mobility shift assay. The compound was dissolved in DMSO and diluted with kinase buffer (CDK2/CycA2 and CDK6/cycD3 with 50 mM HEPES (pH 7.5), 10 mM MgCl2, 0.0015% Brij-35, and 2 mM dithiothreitol; CDK4/CycD3 with 20 mM HEPES (pH 7.5), 10 mM MgCl2, 0.01% Triton X-100, and 2 mM dithiothreitol), 5 μl of a 5-fold final concentration of the compound (10% DMSO) was added to a 384-well plate. Add 10 μL of 2.5-fold […] enzyme solution and incubate for 10 minutes at room temperature, then add 10 μL of 2.5-fold substrate solution (corresponding enzyme and substrate concentration CDK2/CycA2 12 nM, ATP Kin 39 μM; CDK4/CycD3 10 nM, ATP Km 221 μM; CDK6/cycD3 15 nM, ATP Km […]) Incubate at 28° C. (60 min CDK2, 180 min CDK4, 60 min CDK6) followed by 25 μl stop solution (100 mM HEPES (pH 7.5), 0.015% Brij-35, 0.2% Coating Reagent #3, 50 mM EDTA) Stop the reaction. Conversion rate data was read on a Caliper EZ Reader 11 (Caliper Life Sciences). The conversion rate was converted into inhibition rate data (% inhibition rate=(max−conversion rate)/(max−min)*100) Where max is the conversion of the DMSO control and min is the conversion of the enzyme-free control. Curves were plotted with compound concentration and inhibition rate on the horizontal and vertical coordinates, and the curve was fitted using XLFit excel add-in version 4.3.1 software and IC50 was calculated.

CDK4/CycD3 = CDK4/CycD3 (Homo sapiens, UniProt P11802); experiment: CDK4 kinase activity inhibition, Caliper mobility shift assay; type: biochemical
Sequence of CDK4/CycD3 (P11802 whole entry, species assumed): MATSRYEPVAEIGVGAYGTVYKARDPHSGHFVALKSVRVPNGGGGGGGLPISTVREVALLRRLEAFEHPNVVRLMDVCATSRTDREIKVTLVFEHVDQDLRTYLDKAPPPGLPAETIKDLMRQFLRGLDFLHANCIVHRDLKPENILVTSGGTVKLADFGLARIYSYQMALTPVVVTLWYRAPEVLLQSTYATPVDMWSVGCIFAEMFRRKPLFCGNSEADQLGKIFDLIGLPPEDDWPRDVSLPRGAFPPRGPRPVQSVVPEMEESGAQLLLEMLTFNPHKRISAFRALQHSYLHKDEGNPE
Sequence of CDK4/CycD3 (P30281 whole entry partner, species assumed): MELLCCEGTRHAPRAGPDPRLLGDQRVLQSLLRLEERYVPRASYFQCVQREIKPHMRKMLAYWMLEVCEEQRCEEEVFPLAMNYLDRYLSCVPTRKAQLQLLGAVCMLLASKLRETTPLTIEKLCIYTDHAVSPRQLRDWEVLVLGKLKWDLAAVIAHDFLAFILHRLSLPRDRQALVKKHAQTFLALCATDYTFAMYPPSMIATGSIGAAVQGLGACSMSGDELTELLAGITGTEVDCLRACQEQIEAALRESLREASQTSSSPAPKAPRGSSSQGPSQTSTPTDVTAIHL
Procedure: as §1

CDK6/cycD3 = CDK6/cycD3 (Homo sapiens, UniProt Q00534); experiment: CDK6 kinase activity inhibition, Caliper mobility shift assay; type: biochemical
Sequence of CDK6/cycD3 (Q00534 whole entry, species assumed): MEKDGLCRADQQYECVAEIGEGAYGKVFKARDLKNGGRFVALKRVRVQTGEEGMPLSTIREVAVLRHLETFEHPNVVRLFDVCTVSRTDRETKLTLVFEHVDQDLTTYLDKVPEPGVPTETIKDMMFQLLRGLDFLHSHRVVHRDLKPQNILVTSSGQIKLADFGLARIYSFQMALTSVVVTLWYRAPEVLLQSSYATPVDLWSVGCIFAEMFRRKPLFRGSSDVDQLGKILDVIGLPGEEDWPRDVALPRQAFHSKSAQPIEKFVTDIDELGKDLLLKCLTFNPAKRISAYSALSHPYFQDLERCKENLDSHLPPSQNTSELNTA
Sequence of CDK6/cycD3 (P30281 whole entry partner, species assumed): as the sequence (P30281 whole entry partner, species assumed) above
Procedure: as §1

[1] = Pharmacokinetic study in mice, intragastric administration; type: in vivo; conditions: mouse, male ICR mice, PO dose 5 mg/kg, plasma
Procedure: Instrument: API4000+LC/MS instrument manufactured by AB Sciex. All measurement data was collected and processed by Analyst 1.6.3 software, and data was calculated and processed by Microsoft Excel. Using the DAS 3.2.8 software, the statistical moment method was used to calculate the pharmacokinetic parameters. t mainly includes kinetic parameters Tmax, T½, Cmax, AUC(0-t) and the like Column: ACQUITY UPLC BEH C18 (2.1 mm×50 mm, 1.7 μm), column temperature 40° C.; mobile phase A is water (0.1% formic acid+5 mM ammonium acetate), mobile phase B is acetonitrile (0.1% acetic acid). The flow rate was 0.30 ml/min and the isocratic elution of 90% B was maintained for 1.5 minutes. Injection volume: 5 μL.
Animals: 12 male ICR mice, weighing 22-26 g, were used after 2 days of feeding in the laboratory of the experimental animal center. They were fasted 12 hours before the administration and 4 hours after the administration, and were free to drink during the test. Mice were randomly divided into four groups of 3 animals each. After intragastric administration, blood samples were taken at two different time points in each group.
Solvent: 0.5% Methylcellulose (aqueous solution containing 0.4% Tween 80). Formulation of intragastric administration solution. The compound is accurately weighed, added to the solvent, and sonicated at room temperature for 5 minutes to completely dissolve the drug to prepare a drug solution of 0.33 mg/ml.
Drug sample: A representative compound of the structure represented by the patent formula (I) of the present invention generally adopts a plurality of samples having similar structures (molecular weight difference of more than 2 units), accurately weighed, and administered together (cassette PK). This allows multiple compounds to be screened simultaneously and their oral absorption rates compared. Single drug administration was also used to study the pharmacokinetics of drug samples in mice.
Blood was taken from the eyelids at 0.25, 0.5, 1, 2, 4, 8, 12, and 24 hours after intragastric administration. In the heparin-treated tube, the supernatant was centrifuged for LC-MS/MS analysis.
Accurately weigh the compounds to different concentrations, perform quantitative analysis on the mass spectrometer to establish a standard curve, and then test the concentration of the compound in the above plasma to obtain the concentration of the compound at different time points. All the measured data were collected and processed by the relevant software, and the statistical moment method was used to calculate the pharmacokinetic parameters (mainly including the kinetic parameters Tmax, T1/2, Cmax, AUC(0-t), etc.).

Cc1nc2c(F)cc(-c3nc(Nc4ccc5c(c4)OC[C@H]4CN(C6CCOCC6)CCN54)ncc3F)cc2n1C(C)C [Compound B2R] showed a pIC50 (CDK2/CycA2) of over 8.00, a pIC50 (CDK4/CycD3) of over 8.00 and a pIC50 (CDK6/cycD3) of over 7.30. It also gave a Cmax [1] of 495 ng/mL, a Tmax [1] of 1 h and a half-life [1] of 5.72 h. For the same molecule, the AUC(0-t) ([1]; read-out: AUC(0-24)) was 2200 ng·h/mL.
